Assay results as given in patent US7410975B2, “Small molecule toll-like receptor (TLR) antagonists” (Coley Pharmaceutical Group, Inc., priority 2003, dated 2008).

molecular target: T1, human TLR9 (hTLR9) (Homo sapiens, UniProt Q9NR96); assay: Antagonist screen, hTLR9-NFκB-293 cells, 6× NF-κB-luciferase reporter, with EC50 of CpG ODN 2006; assay type: cell-based; conditions: FIG. 1, graph
T1 construct: expressed in transfected cells
T1 sequence (Q9NR96 26-1032): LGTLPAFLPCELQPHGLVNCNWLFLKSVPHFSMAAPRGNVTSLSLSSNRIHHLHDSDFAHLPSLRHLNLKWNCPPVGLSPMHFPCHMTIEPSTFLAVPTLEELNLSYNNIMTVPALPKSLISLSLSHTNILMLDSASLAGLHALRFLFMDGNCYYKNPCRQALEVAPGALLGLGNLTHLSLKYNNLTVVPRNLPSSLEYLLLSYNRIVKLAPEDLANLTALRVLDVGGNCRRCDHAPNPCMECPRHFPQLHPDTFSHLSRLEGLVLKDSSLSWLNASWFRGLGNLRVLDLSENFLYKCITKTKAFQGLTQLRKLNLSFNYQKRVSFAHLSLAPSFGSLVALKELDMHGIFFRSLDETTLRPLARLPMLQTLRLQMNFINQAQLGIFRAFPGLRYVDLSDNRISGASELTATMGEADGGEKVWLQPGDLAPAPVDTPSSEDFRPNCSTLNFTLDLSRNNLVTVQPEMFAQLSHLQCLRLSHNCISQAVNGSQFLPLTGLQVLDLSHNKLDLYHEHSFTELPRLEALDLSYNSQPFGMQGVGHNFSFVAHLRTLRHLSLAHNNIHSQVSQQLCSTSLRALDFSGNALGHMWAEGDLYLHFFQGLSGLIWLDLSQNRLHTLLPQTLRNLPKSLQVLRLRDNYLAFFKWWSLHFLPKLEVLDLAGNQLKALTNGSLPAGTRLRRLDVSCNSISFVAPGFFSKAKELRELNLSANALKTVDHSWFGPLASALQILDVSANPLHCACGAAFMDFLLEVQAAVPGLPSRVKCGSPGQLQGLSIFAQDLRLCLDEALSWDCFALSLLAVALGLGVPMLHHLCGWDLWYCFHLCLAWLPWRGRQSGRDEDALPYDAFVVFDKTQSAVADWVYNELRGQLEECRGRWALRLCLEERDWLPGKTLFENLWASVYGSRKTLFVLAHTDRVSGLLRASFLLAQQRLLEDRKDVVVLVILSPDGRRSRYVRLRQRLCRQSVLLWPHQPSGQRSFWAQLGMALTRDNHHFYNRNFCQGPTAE
Procedure: Candidate small molecules for initial screening were obtained from a commercially available library of 880 off-patent small molecules selected for structural diversity and proven bioavailability in humans (Prestwick Chemical Library). […] Results were measured as fold induction over baseline luciferase activity measured in the absence of ODN 2006 and compared to fold induction over baseline in the presence of the EC50 concentration of ODN 2006 alone. […] Additional screening was performed in like manner using additional small molecules selected from another library or specifically prepared for this purpose.
The method is described in greater detail as follows. The cells for each individual cell clone (hTLR3-NFκB-293, hTLR7-NFκB-293, hTLR8-NFκB-293 and hTLR9-NFκB-293) were counted and seeded one day before the stimulation at 1.5×10^4 cells per well in 96-well cell culture plates. To become adherent the cells were incubated after seeding overnight at 37° C. in 5% CO2 humidified air.
The screen for each compound was performed at the same time for all of the receptors TLR3, TLR7, TLR8 and TLR9. Up to fifteen test compounds, each assayed in duplicate at each of three different final concentrations (0.5 μg/ml, 5 μg/ml, and 50 μg/ml), were used for 16 h cell stimulation on a single multiwell culture plate. A 4× final concentration master plate was created to prepare the different test compounds before they were added to the cells.
Controls were added as duplicates individually for each cell clone on the cell culture plate. Positive controls were used as follows (final concentrations): 50 μg/ml poly(I:C) for hTLR3-NFκB-293; 8 μM resiquimod (R848) for hTLR7-NFκB-293; 30 μM R848 for hTLR8-NFκB-293; and 2.5 μM CpG-ODN 2006 for hTLR9-NFκB-293. Media alone was used as negative control. After addition of controls and small molecules, the cell clones were additionally stimulated with the EC50 concentration of the appropriate receptor-specific ligand.
The mean value of wells H2 and H5 (each with cells and EC50 concentration of the appropriate receptor-specific ligand) divided by the mean of wells H3 and H6 (each with cells alone) yielded the baseline response (i.e., fold induction of luciferase activity) to EC50 concentration of the appropriate receptor-specific ligand.
After 16 h stimulation the supernatant was removed and the cells treated with lysis buffer and stored at −80° C. before measuring.
For each screen result a graphical documentation was performed.
The baseline result (measured with addition of the EC50 concentration of the receptor-specific ligand) for each cell culture plate was measured as described above. Antagonistic effects were measured by down regulation compared to the baseline. Antagonists were scored as follows: • 13: compounds for which there was clear down regulation at 0.5 μg/ml, 5 μg/ml, and 50 μg/ml; • 12: compounds for which there was clear down regulation at 5 μg/ml and 50 μg/ml; • 11: compounds for which there was clear down regulation only at 50 μg/ml; • —: compounds for which there was no clear down regulation even at 50 μg/ml. Agonists

SMILES | inhibition of TLR9 signaling in response to CpG ODN 2006 (FIG. 1)
c1ccc2c(c1)[nH]c1cnccc12 [compound 470, norharman] | concentration-dependent inhibition

same assay, conditions: compound at 0.5, 5, 50 μg/ml; EC50 concentration of CpG ODN 2006; 16 h; NF-κB-luciferase

SMILES | hTLR9 (inhibitory effect, antagonist score)
CC1NCCc2c1[nH]c1ccccc21.Cl (racemic) [compound 619, Eleagnine hydrochloride (R,S)] | 12 (compounds for which there was clear down regulation at 5 μg/ml and 50 μg/ml)
O=C1c2c(O)cccc2Cc2cccc(O)c21 [compound 43, Anthralin] | 13 (compounds for which there was clear down regulation at 0.5 μg/ml, 5 μg/ml, and 50 μg/ml)
CN(C)CCCN1c2ccccc2Sc2ccc(C(F)(F)F)cc21.Cl [compound 53, Triflupromazinehydrochloride] | 13 (compounds for which there was clear down regulation at 0.5 μg/ml, 5 μg/ml, and 50 μg/ml)
CN(C)CCCN1c2ccccc2Sc2ccc(Cl)cc21.Cl [compound 64, Chlorpromazinehydrochloride] | 12 (compounds for which there was clear down regulation at 5 μg/ml and 50 μg/ml)
CN(C)CCC=C1c2ccccc2CCc2ccccc21.Cl [compound 74, Amitryptilinehydrochloride] | 12 (compounds for which there was clear down regulation at 5 μg/ml and 50 μg/ml)
OC(c1ccccc1)(c1ccccc1)C1CCNCC1 [compound 93, Azacyclonol] | 11 (compounds for which there was clear down regulation only at 50 μg/ml)
CN1Cc2c(N)cccc2C(c2ccccc2)C1.O=C(O)/C=C\C(=O)O (centres unmarked) [compound 108, Nomifensine maleate] | 11 (compounds for which there was clear down regulation only at 50 μg/ml)
C[C@]12N[C@H](Cc3ccccc31)c1ccccc12.O=C(O)/C=C\C(=O)O [compound 109, Dizocilpine maleate] | 13 (compounds for which there was clear down regulation at 0.5 μg/ml, 5 μg/ml, and 50 μg/ml)
OCCN1CCN(CCCN2c3ccccc3Sc3ccc(Cl)cc32)CC1 [compound 125, Perphenazine] | 11 (compounds for which there was clear down regulation only at 50 μg/ml)
CN1CCN(CCCN2c3ccccc3Sc3ccc(S(=O)(=O)N(C)C)cc32)CC1.CS(=O)(=O)O.CS(=O)(=O)O [compound 149, Thioproperasinedimesylate] | 13 (compounds for which there was clear down regulation at 0.5 μg/ml, 5 μg/ml, and 50 μg/ml)
Clc1ccccc1C(c1ccccc1)(c1ccccc1)n1ccnc1 [compound 267, Clotrimazole] | — (compounds for which there was no clear down regulation even at 50 μg/ml)
CC(NCCC(c1ccccc1)c1ccccc1)c1ccccc1.Cl (centres unmarked) [compound 270, Fendiline hydrochloride] | — (compounds for which there was no clear down regulation even at 50 μg/ml)
CN1CCC(=C2c3ccccc3Sc3ccccc32)CC1.O=C(O)/C=C\C(=O)O [compound 294, Pimethixene maleate] | 11 (compounds for which there was clear down regulation only at 50 μg/ml)
O=c1[nH]c2ccccc2n1C1CCN(CCCC(c2ccc(F)cc2)c2ccc(F)cc2)CC1 [compound 308, Pimozide] | 12 (compounds for which there was clear down regulation at 5 μg/ml and 50 μg/ml)
Cl.Cl.OCCN1CCN(CC/C=C2/c3ccccc3Sc3ccc(C(F)(F)F)cc32)CC1 [compound 340, Flupentixoldihydrochloride cis-(Z)] | 11 (compounds for which there was clear down regulation only at 50 μg/ml)
CNCCCN1c2ccccc2CCc2ccccc21.Cl [compound 343, Desipraminehydrochloride] | 12 (compounds for which there was clear down regulation at 5 μg/ml and 50 μg/ml)
CN(C)CC/C=C1/c2ccccc2Sc2ccc(Cl)cc21.Cl [compound 348, Chlorprothixenehydrochloride] | 12 (compounds for which there was clear down regulation at 5 μg/ml and 50 μg/ml)
Cc1cccc(C)c1NC(=O)CN1CCN(CCCC(c2ccc(F)cc2)c2ccc(F)cc2)CC1 [compound 381, Lidoflazine] | 11 (compounds for which there was clear down regulation only at 50 μg/ml)
Cl.Cl.Fc1ccc(C(OCCN2CCN(CCCc3ccccc3)CC2)c2ccc(F)cc2)cc1 [compound 386, GBR 12909hydrochloride] | — (compounds for which there was no clear down regulation even at 50 μg/ml)
Nc1cccc2c1C(=O)c1cccc(N)c1C2=O [compound 413, Anthraquinone,1,5-diamino] | 13 (compounds for which there was clear down regulation at 0.5 μg/ml, 5 μg/ml, and 50 μg/ml)
CN1CCC2C(C1)c1ccccc1N2Cc1ccccc1 (centres unmarked) [compound 455, Mebhydroline 1,5 naphtalenedisulfonate] | 12 (compounds for which there was clear down regulation at 5 μg/ml and 50 μg/ml)
Cc1cccc(CN2CCN(C(c3ccccc3)c3ccc(Cl)cc3)CC2)c1.Cl.Cl (centres unmarked) [compound 457, Meclozinedihydrochioride] | 11 (compounds for which there was clear down regulation only at 50 μg/ml)
c1ccc2c(c1)[nH]c1cnccc12 [compound 470, norharman] | 11 (compounds for which there was clear down regulation only at 50 μg/ml)
CN(C)CC/C=C1/c2ccccc2CSc2ccccc21.Cl [compound 488, Dosulepin hydrochloride] | 12 (compounds for which there was clear down regulation at 5 μg/ml and 50 μg/ml)
CN1CCN(C(c2ccccc2)c2ccccc2)CC1.Cl [compound 510, Cyclizine hydrochloride] | 11 (compounds for which there was clear down regulation only at 50 μg/ml)
CN1CCCCC1CCN1c2ccccc2Sc2ccc([S+](C)[O-])cc21.O=S(=O)(O)c1ccccc1 (centres unmarked) [compound 529, Mesoridazine besylate] | 11 (compounds for which there was clear down regulation only at 50 μg/ml)
CCOC(=O)Oc1c(OC)cc(C(=O)O[C@@H]2C[C@@H]3CN4CCc5c([nH]c6cc(OC)ccc56)[C@H]4C[C@@H]3[C@H](C(=O)OC)[C@H]2OC)cc1OC [compound 564, Syrosingopine] | 13 (compounds for which there was clear down regulation at 0.5 μg/ml, 5 μg/ml, and 50 μg/ml)
COC(=O)[C@H]1[C@H]2C[C@@H]3c4[nH]c5cc(OC)ccc5c4CCN3C[C@H]2C[C@@H](OC(=O)/C=C/c2cc(OC)c(OC)c(OC)c2)[C@@H]1OC [compound 568, Rescinnamin] | 12 (compounds for which there was clear down regulation at 5 μg/ml and 50 μg/ml)
